Consider 15 molecules from patent publication US20240336566A1, “CRYSTALLINE FORMS OF A COMPOUND FOR THE TARGETED DEGRADATION OF THE ANDROGEN RECEPTOR” (Arvinas Operations, Inc., priority 2023, published 2024).

The nature of the data set: Primary salt screen: XRPD post temperature cycling/evaporation, post drying and post storage at 40° C./75% RH. In kind it is physicochemical. As to the method:
• 30 mg samples of Compound A were weighed out into 2 mL screw cap sample vials for 96 experiments. To these, 200 μL of the appropriate solvent system was added to dissolve the material or form a slurry. See Table 16 for the solvent systems selected for the primary salt screen.
• 1.05 eq. of solid counterions were weighed into six separate vials each and 1 molar stock solutions were prepared for liquid counterions in 5 mL of THF. See Table 17 for selected counterions and mass/volume needed for 1.05 eq. additions. • 100 μL of the appropriate solvent was added to the solid counterions.
The solution/slurry of counterion was added to the solution/slurry of the free base material.
• The samples were placed in an incubator shaker to temperature cycle between ambient and 40° C. over 4 hour cycles. • After ca. 72 hours of temperature cycling, observations were noted, see Table 19.
• Where slurries were obtained, the solids were isolated via centrifugation. Solids and gels were analyzed by XRPD.
Any samples that were clear solutions after temperature cycling were left to evaporate at ambient conditions. See Table 20 for observations made after evaporation. Solids obtained through evaporation were analyzed by XRPD.
• The samples obtained from temperature cycling were dried under vacuum at 40° C. for ca. 20 hours while the samples obtained from evaporation were dried under vacuum at 40° C. for ca. 4 hours. […]

Where [1] appears, read: Compound A + 1.05 eq. counterion (= label), DMSO:Water (50:50 % v/v), stored ca. 20 hours.
Setting [2] is: Compound A + 1.05 eq. counterion (= label), 1,4-Dioxane.
Setting [3] is: Compound A + 1.05 eq. counterion (= label), 1,4-Dioxane, dried under vacuum at 40° C.
Where [4] appears, read: Compound A + 1.05 eq. counterion (= label), 1,4-Dioxane, stored ca. 20 hours.
Where [5] appears, read: Compound A + 1.05 eq. counterion (= label), DCM.
Where [6] appears, read: Compound A + 1.05 eq. counterion (= label), DCM, dried under vacuum at 40° C.
[7] abbreviates: Compound A + 1.05 eq. counterion (= label), DCM, stored ca. 20 hours.
[8] abbreviates: Compound A + 1.05 eq. counterion (= label), DMSO:Water (50:50 % v/v).
Setting [9] is: Compound A + 1.05 eq. counterion (= label), THF.
Where [10] appears, read: Compound A + 1.05 eq. counterion (= label), THF:Water (98:2 % v/v).
Setting [11] is: Compound A + 1.05 eq. counterion (= label), THF, dried under vacuum at 40° C.
The mark [12] stands for this setting: Compound A + 1.05 eq. counterion (= label), THF, stored ca. 20 hours.
The mark [13] stands for this setting: Compound A + 1.05 eq. counterion (= label), DCM:Methanol (50:50 % v/v).
[14] abbreviates: Compound A + 1.05 eq. counterion (= label), DCM:Methanol (50:50 % v/v), dried under vacuum at 40° C.
[15] abbreviates: Compound A + 1.05 eq. counterion (= label), DCM:Methanol (50:50 % v/v), stored ca. 20 hours.
The mark [16] stands for this setting: Compound A + 1.05 eq. counterion (= label), DMSO:Water (50:50 % v/v), dried under vacuum at 40° C.
Setting [17] is: Compound A + 1.05 eq. counterion (= label), THF:Water (98:2 % v/v), dried under vacuum at 40° C.
[18] abbreviates: Compound A + 1.05 eq. counterion (= label), THF:Water (98:2 % v/v), stored ca. 20 hours.

Structures are written as SMILES. Where two headings read alike, the source gives them in different places.

With `CC(=O)O` [Acetic acid], the “XRPD results post 40° C./75% RH” value under setting [1] is listed as “A t h”.

As for `O=S(=O)(O)c1ccccc1` [Benzenesulfonic acid], the “XRPD results post temperature cycling and evaporation” value is “A t” under setting [2]; “A e” under setting [5]; “A e” under setting [8]; “A t” under setting [9]; “S e” under setting [10]. Further, the “XRPD results post drying” value is given as “A t” under setting [3], “A e” under setting [6] and “A t” under setting [11]. Moreover, the “XRPD results post 40° C./75% RH” value is given as “A t” under setting [4], “A e” under setting [7], “A e h” under setting [1] and “A t” under setting [12].

For the molecule `O=C(O)c1ccccc1` [Benzoic acid], the “XRPD results post temperature cycling and evaporation” value under setting [5] is “A e”. Moreover, the “XRPD results post drying” value under setting [6] is recorded as “A e”. In addition, under setting [7], the “XRPD results post 40° C./75% RH” value is listed as “A e”.

In the case of `O=C(O)CC(O)(CC(=O)O)C(=O)O` [Citric acid], the “XRPD results post temperature cycling and evaporation” value runs as follows: under setting [2], “A t”; under setting [5], “A e”; under setting [13], “A e”; under setting [8], “A t”; under setting [9], “A e”; under setting [10], “A e”. Besides, the “XRPD results post drying” value under setting [3] was “A t”; the “XRPD results post drying” value under setting [14] is on record as “A e”; the “XRPD results post drying” value under setting [6] is “A e”; the “XRPD results post drying” value under setting [16] is “A t”; the “XRPD results post drying” value under setting [17] is “A e”; the “XRPD results post drying” value under setting [11] was “A e”. Moreover, the “XRPD results post 40° C./75% RH” value was “A t” under setting [4]; “A e” under setting [15]; “A e” under setting [7]; “A t” under setting [1]; “A e” under setting [18]; “A e” under setting [12].

On to `O=C(O)/C=C/C(=O)O` [Fumaric acid], for which the “XRPD results post temperature cycling and evaporation” value under setting [2] is given as “S t *”; the “XRPD results post temperature cycling and evaporation” value under setting [5] is “A e”; the “XRPD results post temperature cycling and evaporation” value under setting [13] is “A e”; the “XRPD results post temperature cycling and evaporation” value under setting [9] is recorded as “A e”. The “XRPD results post drying” value under setting [3] was “A t d”, the “XRPD results post drying” value under setting [14] is given as “A e”, the “XRPD results post drying” value under setting [6] was “A e” and the “XRPD results post drying” value under setting [11] is on record as “A e”. In addition, the “XRPD results post 40° C./75% RH” value runs as follows: under setting [4], “A t”; under setting [15], “A e”; under setting [7], “A e”; under setting [12], “A e”.

On to `Cl` [Hydrochloric acid], for which the “XRPD results post temperature cycling and evaporation” value under setting [5] was “t S”; the “XRPD results post temperature cycling and evaporation” value under setting [13] was “t S”.

In the case of `O=C(O)/C=C\C(=O)O` [Maleic acid], the “XRPD results post temperature cycling and evaporation” value under setting [2] is “S t *”; the “XRPD results post temperature cycling and evaporation” value under setting [5] was “C e”; the “XRPD results post temperature cycling and evaporation” value under setting [13] was “A e”; the “XRPD results post temperature cycling and evaporation” value under setting [8] was “A t”; the “XRPD results post temperature cycling and evaporation” value under setting [9] is “A e”; the “XRPD results post temperature cycling and evaporation” value under setting [10] was “A e”. Also, the “XRPD results post 40° C./75% RH” value runs as follows: under setting [4], “A t h”; under setting [15], “A e”; under setting [7], “A e”; under setting [1], “A t”; under setting [18], “A e”; under setting [12], “A e”. Also, the “XRPD results post drying” value under setting [14] is “A e”; the “XRPD results post drying” value under setting [6] was “A e d”; the “XRPD results post drying” value under setting [16] was “A t”; the “XRPD results post drying” value under setting [17] is on record as “A e”; the “XRPD results post drying” value under setting [11] is given as “A e”.

With `O=C(O)CC(=O)O` [Malonic acid], the “XRPD results post temperature cycling and evaporation” value reads like this: under setting [5], “A e”; under setting [13], “A e”; under setting [8], “A t”; under setting [9], “A e”; under setting [10], “A e”. Moreover, the “XRPD results post drying” value reads like this: under setting [14], “A e”; under setting [6], “A e”; under setting [17], “A e”; under setting [11], “A e”. The “XRPD results post 40° C./75% RH” value under setting [15] is reported as “A e”, the “XRPD results post 40° C./75% RH” value under setting [7] is given as “A e”, the “XRPD results post 40° C./75% RH” value under setting [18] is listed as “A e” and the “XRPD results post 40° C./75% RH” value under setting [12] is recorded as “A e”.

For the molecule `CS(=O)(=O)O` [Methanesulfonic acid], the “XRPD results post temperature cycling and evaporation” value under setting [2] was “A t”; the “XRPD results post temperature cycling and evaporation” value under setting [5] is “A e”; the “XRPD results post temperature cycling and evaporation” value under setting [8] was “A t”; the “XRPD results post temperature cycling and evaporation” value under setting [10] is given as “A e”. The “XRPD results post drying” value is “A t” under setting [3], “A e” under setting [6], “A t” under setting [16] and “A e” under setting [17]. In addition, the “XRPD results post 40° C./75% RH” value reads like this: under setting [4], “A t”; under setting [7], “A e”; under setting [1], “A t”; under setting [18], “A e”.

For the molecule `O=P(O)(O)O` [Phosphoric acid], the “XRPD results post temperature cycling and evaporation” value under setting [2] is “A t”; the “XRPD results post temperature cycling and evaporation” value under setting [5] is “S t *”; the “XRPD results post temperature cycling and evaporation” value under setting [13] is reported as “S t *”; the “XRPD results post temperature cycling and evaporation” value under setting [9] is “S t”; the “XRPD results post temperature cycling and evaporation” value under setting [10] was “S t”. The “XRPD results post drying” value under setting [3] is given as “A t”. Also, the “XRPD results post 40° C./75% RH” value is listed as “A t” under setting [4] and “A t h” under setting [7].

Take `O=C(O)CCC(=O)O` [Succinic acid]: the “XRPD results post temperature cycling and evaporation” value is “C e” under setting [5] and “A t” under setting [8]. Besides, the “XRPD results post drying” value under setting [6] was “A e d”. In addition, the “XRPD results post 40° C./75% RH” value under setting [7] is reported as “C e h”.

On to `O=S(=O)(O)O` [Sulfuric acid], for which the “XRPD results post 40° C./75% RH” value is “A t and A e”; the “XRPD results post drying” value is “A t and A e”; the “XRPD results post temperature cycling and evaporation” value was “A t and A e”.

For the molecule `N[C@@H](CCC(=O)O)C(=O)O` [l-Glutamic], the “XRPD results post temperature cycling and evaporation” value is on record as “C e” under setting [5] and “A t” under setting [8]. Moreover, under setting [6], the “XRPD results post drying” value is reported as “C e”. Further, under setting [7], the “XRPD results post 40° C./75% RH” value was “C e”.

Turning to `O=C(O)C[C@H](O)C(=O)O` [l-Malic acid], the “XRPD results post temperature cycling and evaporation” value under setting [5] is on record as “A e”; the “XRPD results post temperature cycling and evaporation” value under setting [8] is on record as “A t”; the “XRPD results post temperature cycling and evaporation” value under setting [9] is listed as “A e”. The “XRPD results post drying” value is reported as “A e” under setting [6] and “A e” under setting [11]. Moreover, the “XRPD results post 40° C./75% RH” value is “A e” under setting [7] and “A e” under setting [12].

For `O=C(O)C(O)C(O)C(=O)O` (stereo not drawn) [l-Tartaric acid], the “XRPD results post temperature cycling and evaporation” value by setting is: under setting [2], “A t”; under setting [5], “A e”; under setting [13], “A e”; under setting [8], “A t”; under setting [9], “A e”; under setting [10], “A e”. The “XRPD results post drying” value under setting [3] is on record as “A t”; the “XRPD results post drying” value under setting [14] was “A e”; the “XRPD results post drying” value under setting [6] is recorded as “A e”; the “XRPD results post drying” value under setting [17] is given as “A e”; the “XRPD results post drying” value under setting [11] is “A e”. Further, the “XRPD results post 40° C./75% RH” value under setting [4] is recorded as “A t”; the “XRPD results post 40° C./75% RH” value under setting [15] is “A e”; the “XRPD results post 40° C./75% RH” value under setting [7] is listed as “A e”; the “XRPD results post 40° C./75% RH” value under setting [18] is reported as “A e”; the “XRPD results post 40° C./75% RH” value under setting [12] is “A e”.
